This experiment has as its target Reverse transcriptase (Human immunodeficiency virus 2, UniProt Q06347). Description: In Vitro Enzyme Assay. The note with it: pH 7.8; 37 °C. The protocol: The reverse transcriptase inhibitory activity of compound was evaluated by a non-radioactive colorimetric assay method. This procedure uses RT to synthesize DNA starting from the template/primer hybridpoly (A) x oligo (dT)15 and avoids the use of radio-labeled nucleotides.
Reverse transcriptase, sequence (Q06347 whole entry): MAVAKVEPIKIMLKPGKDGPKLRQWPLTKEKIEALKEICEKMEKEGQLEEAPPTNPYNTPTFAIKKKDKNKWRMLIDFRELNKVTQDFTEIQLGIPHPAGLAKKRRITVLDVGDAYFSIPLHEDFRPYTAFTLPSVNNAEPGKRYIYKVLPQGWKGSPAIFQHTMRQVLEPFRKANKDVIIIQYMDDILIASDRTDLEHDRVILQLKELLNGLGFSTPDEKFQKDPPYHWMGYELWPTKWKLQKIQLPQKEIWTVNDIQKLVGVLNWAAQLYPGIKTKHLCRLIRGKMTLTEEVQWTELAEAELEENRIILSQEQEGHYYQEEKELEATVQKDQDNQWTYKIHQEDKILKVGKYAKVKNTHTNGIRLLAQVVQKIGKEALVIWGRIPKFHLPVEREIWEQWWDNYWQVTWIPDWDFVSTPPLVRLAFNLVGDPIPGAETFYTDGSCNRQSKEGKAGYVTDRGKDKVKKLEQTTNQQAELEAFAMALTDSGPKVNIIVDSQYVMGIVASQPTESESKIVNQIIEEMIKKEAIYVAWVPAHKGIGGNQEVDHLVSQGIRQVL
In the case of `Cc1ccnc2c1NC(=O)c1cccnc1N2C1CC1` [BI-RG-587], the IC50 (as a rule, the concentration that inhibits the measured activity by half) stood at 4.2 µM.
`Cc1ccc(S(=O)(=O)Oc2ccc(Cl)cc2Cl)cc1` [NCI Code, 4179] showed an IC50 of 87.1 µM.
For `CCCCN(CCCC)C(=O)c1ccc(Cl)cc1Cl` [NCI Code, 6050], the IC50 was 31.3 µM.
On to `CCCC(=O)Oc1ccc(C(C)(C)C)cc1Br` [NCI Code, 6927], for which the IC50 worked out at 335 µM.
The figure for `CCCCCCc1nc2c([nH]1)c(=O)n(C)c(=O)n2C` [NCI Code, 14129] is 18.9 µM.

The values are drawn from BindingDB's records for doi:10.1111/j.1747-0285.2009.00852.x (University of Jordan, 2009).
